Reference: patent US4740233A, “Substituted 1,2,4-triazolo[1,5-a]-pyrimidine-2-sulfonamides and compositions and methods of controlling undesired vegetation and suppressing the nitrification of ammonium nitrogen in soil” (The Dow Chemical Company, priority 1986, dated 1988)

Legend:
annual morning glory = experiment: Postemergent control of plant species; assay type: in vivo, Ipomoea spp.; details: Ipomoea, post-emergence, 336 h, read-out: percent postemergent control
Procedure, shortened: (§1)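 Compounds in acetone mixed 1:1 with water containing 0.1% surfactant, sprayed postemergence on greenhouse plants at the 2-4 leaf stage. Growth reduction versus untreated plants of the same species scored after about two weeks.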

rape = experiment: Postemergent control of plant species; assay type: in vivo, Brassica napus; details: Brassica napus, post-emergence, 336 h, read-out: percent postemergent control
Procedure, shortened: as §1

yellow foxtail = experiment: Postemergent control of plant species; assay type: in vivo, Setaria lutescens; details: Setaria, post-emergence, 336 h, read-out: percent postemergent control
Procedure, shortened: as §1

cocklebur = experiment: Postemergent control of plant species; assay type: in vivo, Xanthium spp.; details: Xanthium strumarium, post-emergence, 336 h, read-out: percent postemergent control
Procedure, shortened: as §1

sorghum = experiment: Postemergent control of plant species; assay type: in vivo, Sorghum vulgare; details: Sorghum, post-emergence, 336 h, read-out: percent postemergent control
Procedure, shortened: as §1

[1] = tested on: nitrification of ammonium nitrogen; experiment: Suppression of nitrification of ammonium nitrogen in soil; details: 27° C.
Procedure, shortened: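 Soil (20 g) moistened to its 1/3 bar tension value, mixed with test chemical and incubated sealed for two weeks at 27° C. Nitrate extracted with ammonium sulfate solution and measured by nitrate-specific ion electrode; value given as % NH4-N remaining.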

wild oats = experiment: Postemergent control of plant species; assay type: in vivo, Avena fatua; details: Avena fatua, post-emergence, 336 h, read-out: percent postemergent control
Procedure, shortened: as §1

pigweed = experiment: Postemergent control of plant species; assay type: in vivo, Amaranthus spp.; details: Amaranthus retroflexus, post-emergence, 336 h, read-out: percent postemergent control
Procedure, shortened: as §1

corn = experiment: Postemergent control of plant species; assay type: in vivo, Zea mays; details: Zea mays, post-emergence, 336 h, read-out: percent postemergent control
Procedure, shortened: as §1

johnson grass = experiment: Postemergent control of plant species; assay type: in vivo, Sorghum halepense; details: Sorghum halepense, post-emergence, 336 h, read-out: percent postemergent control
Procedure, shortened: as §1

yellow nutsedge = experiment: Postemergent control of plant species; assay type: in vivo, Cyperus esculentus; details: Cyperus, post-emergence, 336 h, read-out: percent postemergent control
Procedure, shortened: as §1

jimsonweed = experiment: Postemergent control of plant species; assay type: in vivo, Datura stramonium; details: Datura stramonium, post-emergence, 336 h, read-out: percent postemergent control
Procedure, shortened: as §1

velvetleaf = experiment: Postemergent control of plant species; assay type: in vivo, Abutilon theophrasti; details: Abutilon theophrasti, post-emergence, 336 h, read-out: percent postemergent control
Procedure, shortened: as §1

cotton = experiment: Postemergent control of plant species; assay type: in vivo, Gossypium spp.; details: Gossypium hirsutum, post-emergence, 336 h, read-out: percent postemergent control
Procedure, shortened: as §1

sugar beet = experiment: Postemergent control of plant species; assay type: in vivo, Beta saccharifera; details: Beta vulgaris, post-emergence, 336 h, read-out: percent postemergent control
Procedure, shortened: as §1

barnyardgrass = experiment: Postemergent control of plant species; assay type: in vivo, Echinochloa crusgalli; details: Echinochloa crus-galli, post-emergence, 336 h, read-out: percent postemergent control
Procedure, shortened: as §1

soybean = experiment: Postemergent control of plant species; assay type: in vivo, Glycine max.; details: Glycine max, post-emergence, 336 h, read-out: percent postemergent control
Procedure, shortened: as §1

wheat = experiment: Postemergent control of plant species; assay type: in vivo, Triticum aestivum; details: Triticum aestivum, post-emergence, 336 h, read-out: percent postemergent control
Procedure, shortened: as §1

crabgrass = experiment: Postemergent control of plant species; assay type: in vivo, Digitaria spp.; details: Digitaria sanguinalis, post-emergence, 336 h, read-out: percent postemergent control
Procedure, shortened: as §1

rice = experiment: Postemergent control of plant species; assay type: in vivo, Oryza sativa; details: Oryza sativa, post-emergence, 336 h, read-out: percent postemergent control
Procedure, shortened: as §1

Row | SMILES | pest or weed control at 500 ppm (annual morning glory) | plant injury at 500 ppm (rape) | pest or weed control at 500 ppm (yellow foxtail) | pest or weed control at 500 ppm (cocklebur) | plant injury at 500 ppm (sorghum) | % NH4-N Remaining After 2 Weeks Incubation ([1]; 1 ppm) | pest or weed control at 500 ppm (wild oats) | pest or weed control at 500 ppm (pigweed) | plant injury at 500 ppm (corn) | pest or weed control at 500 ppm (johnson grass) | pest or weed control at 500 ppm (yellow nutsedge) | pest or weed control at 500 ppm (jimsonweed) | pest or weed control at 500 ppm (velvetleaf) | plant injury at 500 ppm (cotton) | plant injury at 500 ppm (sugar beet) | pest or weed control at 500 ppm (barnyardgrass) | plant injury at 500 ppm (soybean) | plant injury at 500 ppm (wheat) | pest or weed control at 500 ppm (crabgrass) | plant injury at 500 ppm (rice) | further results
1 | Cc1cc(C)n2nc(S(=O)(=O)Nc3ccc(F)cc3Cl)nc2n1 [Compound 30] | 60% | 40% | 0% | 40% | 0% | 54% | 0% | 0% | 0% | 0% | 0% | 0% | 40% | 0% | 0% | 0% | 30% | 0% | 0% | 20% | % NH4-N Remaining After 2 Weeks Incubation ([1]; 0.01 ppm): 0%; % NH4-N Remaining After 2 Weeks Incubation ([1]; 0.1 ppm): 6%; % NH4-N Remaining After 2 Weeks Incubation ([1]; 10 ppm): 81%
2 | Cc1cc(C)n2nc(S(=O)(=O)Nc3c(Cl)cccc3CO)nc2n1 [Compound 93] | 0% | 70% | 0% | 80% | 0% | 64% | 0% | 70% | 0% | 0% | 15% | 80% | 20% | 0% | 70% | 0% | 90% | 0% | 0% | 0% | % NH4-N Remaining After 2 Weeks Incubation ([1]; 0.06 ppm): 79%; % NH4-N Remaining After 2 Weeks Incubation ([1]; 0.25 ppm): 57%; % NH4-N Remaining After 2 Weeks Incubation ([1]; 4 ppm): 89%
3 | Cc1nc2nc(S(=O)(=O)Nc3ccccc3C(F)(F)F)nn2c2c1CCC2 [Compound 106] | 80% | 40% | 0% | 90% | 40% | 88% | 30% | 40% | 90% | 90% | 0% | 0% | 0% | 30% | 0% | 30% | 90% | 20% | 0% | 30% | % NH4-N Remaining After 2 Weeks Incubation ([1]; 0.01 ppm): 29%; % NH4-N Remaining After 2 Weeks Incubation ([1]; 0.1 ppm): 56%; % NH4-N Remaining After 2 Weeks Incubation ([1]; 10 ppm): 96%
4 | O=S(=O)(Nc1c(F)cccc1F)c1nc2ncc(Cl)cn2n1 [Compound 117, 6-chloro-N-(2,6-difluorophenyl)-1,2,4-triazolo[1,5-a]pyrimidine-2-sulfonamide] | 80% | 100% | 65% | 100% | 60% | 41% | 0% | 75% | 0% | 75% | 25% | 100% | 100% | 90% | 100% | 0% | 35% | 0% | 0% | 0% | % NH4-N Remaining After 2 Weeks Incubation ([1]; 0.06 ppm): 32%; % NH4-N Remaining After 2 Weeks Incubation ([1]; 0.25 ppm): 24%; % NH4-N Remaining After 2 Weeks Incubation ([1]; 4 ppm): 72%
5 | O=S(=O)(Nc1ccccc1C(F)(F)F)c1nc2ncccn2n1 [Compound 136] | 40% | 80% | 0% | 98% | 0% | 67% | 0% | 90% | 0% | 0% | 0% | 30% | 70% | 30% | 80% | 0% | 30% | 0% | 0% | 0% | % NH4-N Remaining After 2 Weeks Incubation ([1]; 0.01 ppm): 0%; % NH4-N Remaining After 2 Weeks Incubation ([1]; 0.1 ppm): 10%; % NH4-N Remaining After 2 Weeks Incubation ([1]; 10 ppm): 98%
6 | CCOc1cnc2nc(S(=O)(=O)Nc3ccccc3C(F)(F)F)nn2c1 [Compound 201] | 0% | 20% | 0% | 80% | 0% | 56% | 0% | 90% | 0% | 0% | 0% | 70% | 60% | 0% | 50% | 0% | 0% | 0% | 0% | 0% | % NH4-N Remaining After 2 Weeks Incubation ([1]; 0.06 ppm): 0%; % NH4-N Remaining After 2 Weeks Incubation ([1]; 0.25 ppm): 11%; % NH4-N Remaining After 2 Weeks Incubation ([1]; 4 ppm): 67%
7 | Cc1cc(C)n2nc(S(=O)(=O)Nc3c(C)nn(C)c3C(F)(F)F)nc2n1 [Compound 247] | 0% | 70% | 0% | 20% | 0% | 58% | 0% | 70% | 0% | 0% | 0% | 20% | 40% | 0% | 70% | 0% | 70% | 0% | 0% | 0% | % NH4-N Remaining After 2 Weeks Incubation ([1]; 0.06 ppm): 58%; % NH4-N Remaining After 2 Weeks Incubation ([1]; 0.25 ppm): 47%; % NH4-N Remaining After 2 Weeks Incubation ([1]; 4 ppm): 82%
